Assay results published in ChEMBL document CHEMBL4433197, “Nuclear Factor Erythroid 2-Related Factor 2 (Nrf2) Inhibition: An Emerging Strategy in Cancer Therapy” (J Med Chem, 2019).

Target: T1, Nuclear factor erythroid 2-related factor 2 (Mus musculus, UniProt Q60795)
T1 sequence (Q60795 whole entry): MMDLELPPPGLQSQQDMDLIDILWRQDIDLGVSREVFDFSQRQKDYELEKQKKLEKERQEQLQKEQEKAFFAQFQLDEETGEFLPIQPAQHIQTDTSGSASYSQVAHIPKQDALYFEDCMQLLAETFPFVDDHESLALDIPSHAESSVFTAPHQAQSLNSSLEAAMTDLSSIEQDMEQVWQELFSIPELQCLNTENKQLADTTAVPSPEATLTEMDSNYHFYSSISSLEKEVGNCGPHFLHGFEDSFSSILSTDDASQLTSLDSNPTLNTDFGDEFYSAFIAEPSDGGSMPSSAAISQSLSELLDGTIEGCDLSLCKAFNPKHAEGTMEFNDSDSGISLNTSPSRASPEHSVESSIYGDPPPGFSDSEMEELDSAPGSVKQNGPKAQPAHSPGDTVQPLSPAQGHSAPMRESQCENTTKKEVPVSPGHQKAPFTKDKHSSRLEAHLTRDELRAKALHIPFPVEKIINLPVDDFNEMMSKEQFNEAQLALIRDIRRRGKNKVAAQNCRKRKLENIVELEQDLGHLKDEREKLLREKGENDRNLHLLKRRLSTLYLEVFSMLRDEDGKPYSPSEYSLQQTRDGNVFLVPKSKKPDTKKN
Assay: Inhibition of Nrf2 in mouse MYC-3T3-ARELUC cells harboring a stably integrated ARE by firefly luciferase reporter gene assay
Type: cell-based

SMILES: Fc1ccc(-c2csc3ncnc(NCc4ccc5c(c4)OCO5)c23)cc1
- EC50: 0.65 µM
